# Source: patent US9364459B2, “3-(indolyl)- or 3-(azaindolyl)- 4-arylmaleimide derivatives for use in the treatment of colon and gastric adenocarcinoma” (Johannes Gutenberg-Universität Mainz, priority 2009, dated 2016)
# Tests used:
# HUVEC = assay: Nicoletti apoptosis assay (sub-G1 fraction) in HUVEC; format: cell-based, human; details: 4 days, untreated 15.4 ± 1.5%
# Method: (§1) Nicoletti Apoptosis Assay by Cell Cycle Analysis
# (§2) Cancer cells were transferred to 12-well flat-bottomed plates. […] Subsequently, cells were incubated in 1 ml medium containing various concentrations of test compounds at 37° C. with 5% CO2. After incubation the cells were washed with PBS, trypsinized, pelleted and mixed with PI buffer (containing 0.1% sodium citrate, 0.1% triton X-100, […] propidium iodide (PI)) and incubated for 1 hour at 4° C. Cell cycle sub-G1 fraction analysis was performed as described previously (Nicoletti, I. et al. (1991) J. Immunol. Methods 139, 271-279) using a flow cytometer (BD FACS Calibur™, BD Biosciences, Heidelberg, Germany). Each experiment was done in triplicate.
# The same analysis was performed with HUVEC cells. 1.5×10^4 cells were plated into each well and treated with test compounds for 4 days.
# Human Umbilical Vein Endothelial Cells (HUVEC) known for mitogenic specifity for VEGF were obtained from the Department of Pathology, University Hospital of Mainz, Germany. The cells were cultured in M199 supplemented with 20% FCS, 1% Pen/Strep, 0.34% GlutaMAX-I, 25 μg/ml Endothelial Cell Growth Supplement (BD Biosciences), 25 μg/ml Heparin sodium (179 USP units/mg; Sigma, Germany) and were maintained at 37° C. and 5% CO2.
# [1] = tested on: HT-29 human colon adenocarcinoma cells; assay: MTT viability assay in HT-29 cells; details: HT-29, 72 h, read-out: Viability of HT-29 cells as determined by MTT assay
# Method: Evaluation of Effect on Viability (MTT Assay)
# The antiproliferative activity of test compounds was determined by the 3-(4,5-dimethylthiazol-2-yl)-2,5-diphenyltetrazolium bromide (MTT) assay as described previously (Mosmann, T. et al. (1983) J. Immunol. Methods 65, 55-63). Cells in the exponential growth phase were transferred to 96-well flat-bottom plates. 10,000 viable cells contained in 200 μl cell suspension were plated into each well and incubated over night. Cells were then exposed to various concentrations of test compounds (100 μl/well) for 3 days at 37° C. with 5% CO2. Subsequently, 10 μl/well MTT stock solution (5 mg/ml; Biomol, Germany) was added and the cells were incubated at 37° C. with 5% CO2 for 4 hours. 100 μl solubilization solution (10% SDS in 0.01 M HCl) was added and the cells were incubated at 37° C. with 5% CO2 over night. Plates were read on an ELISA-Reader ELX 800 (BIO-TEK Software KC 4) at 562 nm absorbance. Each experiment was done in triplicate.
# HCT-116, HT-29 and SW480 cells were cultured in RPMI1640 supplemented with 10% FCS. […] All cells were maintained at 37° C. and 5% CO2.
# HT-29 = assay: Nicoletti apoptosis assay in HT-29 cells; format: cell-based, human; details: for Activity in combination with irinotecan relative to compound A, in words: HT-29 cells
# Method: as §1, §2
# [2] = tested on: chick embryo microvessel formation; assay: Quantitative chick embryo in vivo assay of antiangiogenic activity; details: Gallus gallus; 26 nM drug concentration/pellet; 24 hours incubation; read-out: Inhibition of microvessel area
# Method: Evaluation of Antiangiogenic Activity in a Quantitative Chick Embryo In Vivo Assay
# The inhibition of angiogenesis (new blood vessel formation) was measured as described in WO2006/061212.
# HCT-116 = assay: Nicoletti apoptosis assay in HCT-116 cells; format: cell-based, human
# Method: as §1, §2
# SW480 = assay: Nicoletti apoptosis assay in SW480 cells; format: cell-based, human
# Method: as §1, §2
# Caco-2 = assay: Nicoletti apoptosis assay in Caco-2 cells; format: cell-based, human
# Method: as §1, §2
# MKN-45 = assay: Nicoletti apoptosis assay in MKN-45 cells; format: cell-based, human
# Method: as §1, §2
# VEGFR-2 = VEGFR-2 (Homo sapiens (Human), UniProt P35968); assay: VEGFR-2 kinase inhibition assay (Millipore IC50Profiler); format: biochemical
# From the text: (§3) GSK-3β, VEGFR-2, FLT-3 Kinase Inhibition Assays
# (§4) Detailed protocols can be found at: www.millipore.com/drugdiscovery/dd3/assayprotocols.
# GSK-3β = GSK-3β (Homo sapiens (Human), UniProt P49841); assay: GSK-3β kinase inhibition assay (Millipore IC50Profiler); format: biochemical
# From the text: as §3, §4
# FLT-3 = FLT-3 (Homo sapiens (Human), UniProt P36888); assay: FLT-3 kinase inhibition assay (Millipore IC50Profiler); format: biochemical
# Method: as §3
# The effect of test compounds on the activity of the protein kinases GSK-3β, VEGFR-2 and FLT-3 was evaluated based on half maximal inhibitory concentration (IC50) values determined by Millipore UK Ltd; Gemini Crescent; Dundee Technology Park; Dundee DD2 1SW; UK (IC50Profiler). Detailed protocols can be found at: www.millipore.com/drugdiscovery/dd3/assayprotocols.
# [3] = Table 8, HT-29, 7.9 μM test compound alone, drug-free control 3.4 ± 0.9%
# [4] = Table 8, HT-29, 7.9 μM test compound plus 1.18 μM irinotecan
# [5] = Table 6, 1.18 μM irinotecan alone
# [6] = Table 6, 7.9 μM comp. A plus 1.18 μM irinotecan
# [7] = Table 6, 7.9 μM compound A alone
# [8] = Table 7, 7.9 μM compound A alone
# [9] = Table 7, 7.9 μM compound A plus 20 nM topotecan
# VEGFR-2, sequence (P35968 20-1356): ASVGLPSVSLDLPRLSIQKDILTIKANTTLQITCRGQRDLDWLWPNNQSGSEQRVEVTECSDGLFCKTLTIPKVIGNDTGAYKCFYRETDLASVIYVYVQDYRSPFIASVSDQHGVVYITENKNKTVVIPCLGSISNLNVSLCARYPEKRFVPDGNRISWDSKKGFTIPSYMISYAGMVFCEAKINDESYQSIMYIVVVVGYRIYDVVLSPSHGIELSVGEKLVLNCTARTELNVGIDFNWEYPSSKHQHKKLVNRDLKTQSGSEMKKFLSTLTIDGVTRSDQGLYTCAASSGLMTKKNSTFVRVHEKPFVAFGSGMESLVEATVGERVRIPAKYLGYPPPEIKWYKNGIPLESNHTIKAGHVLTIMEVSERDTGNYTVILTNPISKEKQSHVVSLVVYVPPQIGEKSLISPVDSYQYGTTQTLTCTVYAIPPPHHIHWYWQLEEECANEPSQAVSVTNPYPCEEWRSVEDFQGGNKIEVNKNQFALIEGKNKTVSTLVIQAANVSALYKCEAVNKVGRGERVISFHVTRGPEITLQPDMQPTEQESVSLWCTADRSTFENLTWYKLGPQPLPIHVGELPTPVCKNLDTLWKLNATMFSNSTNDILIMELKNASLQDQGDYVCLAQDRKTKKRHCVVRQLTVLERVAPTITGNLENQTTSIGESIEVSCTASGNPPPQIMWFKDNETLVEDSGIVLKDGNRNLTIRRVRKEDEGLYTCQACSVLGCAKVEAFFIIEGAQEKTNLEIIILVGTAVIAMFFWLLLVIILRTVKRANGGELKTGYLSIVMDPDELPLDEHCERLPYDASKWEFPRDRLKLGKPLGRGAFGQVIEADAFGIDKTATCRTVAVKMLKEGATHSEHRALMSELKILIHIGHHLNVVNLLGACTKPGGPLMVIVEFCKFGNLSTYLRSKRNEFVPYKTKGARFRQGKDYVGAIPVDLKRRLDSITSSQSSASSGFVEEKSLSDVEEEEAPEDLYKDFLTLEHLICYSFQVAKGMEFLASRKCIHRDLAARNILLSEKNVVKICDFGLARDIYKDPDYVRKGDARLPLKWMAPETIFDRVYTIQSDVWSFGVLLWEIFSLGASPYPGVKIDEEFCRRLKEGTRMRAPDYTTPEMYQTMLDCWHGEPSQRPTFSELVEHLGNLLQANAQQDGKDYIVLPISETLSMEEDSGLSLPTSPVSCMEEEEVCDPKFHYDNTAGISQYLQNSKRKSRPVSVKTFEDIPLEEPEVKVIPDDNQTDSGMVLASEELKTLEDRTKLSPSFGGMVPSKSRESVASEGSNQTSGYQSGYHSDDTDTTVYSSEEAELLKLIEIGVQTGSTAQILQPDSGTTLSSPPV
# FLT-3, sequence (P36888 27-993): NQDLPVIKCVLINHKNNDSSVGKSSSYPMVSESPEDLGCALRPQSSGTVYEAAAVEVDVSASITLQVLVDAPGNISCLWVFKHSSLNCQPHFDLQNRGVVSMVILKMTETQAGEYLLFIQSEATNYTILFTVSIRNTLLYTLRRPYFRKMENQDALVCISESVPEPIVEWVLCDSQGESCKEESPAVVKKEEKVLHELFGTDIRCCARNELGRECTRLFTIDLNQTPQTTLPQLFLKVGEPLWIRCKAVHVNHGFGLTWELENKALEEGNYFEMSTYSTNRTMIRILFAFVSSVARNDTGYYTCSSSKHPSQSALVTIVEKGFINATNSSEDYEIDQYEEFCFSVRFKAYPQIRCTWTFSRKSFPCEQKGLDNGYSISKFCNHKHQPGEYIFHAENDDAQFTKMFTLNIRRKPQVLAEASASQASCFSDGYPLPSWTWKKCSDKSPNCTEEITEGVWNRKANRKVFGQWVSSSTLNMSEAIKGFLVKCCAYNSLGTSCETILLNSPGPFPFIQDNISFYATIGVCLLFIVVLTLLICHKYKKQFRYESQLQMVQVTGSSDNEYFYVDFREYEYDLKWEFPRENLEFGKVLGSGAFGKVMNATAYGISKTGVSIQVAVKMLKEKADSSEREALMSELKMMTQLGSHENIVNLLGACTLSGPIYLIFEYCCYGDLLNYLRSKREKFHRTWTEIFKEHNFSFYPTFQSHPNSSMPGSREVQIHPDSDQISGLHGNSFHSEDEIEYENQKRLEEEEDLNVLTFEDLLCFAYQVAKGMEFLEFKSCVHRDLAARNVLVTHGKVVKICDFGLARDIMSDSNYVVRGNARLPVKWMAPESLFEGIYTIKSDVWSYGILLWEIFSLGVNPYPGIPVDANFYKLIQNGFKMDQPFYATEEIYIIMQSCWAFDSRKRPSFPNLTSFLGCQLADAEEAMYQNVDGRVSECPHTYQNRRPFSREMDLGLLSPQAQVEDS
# GSK-3β, sequence (P49841 whole entry): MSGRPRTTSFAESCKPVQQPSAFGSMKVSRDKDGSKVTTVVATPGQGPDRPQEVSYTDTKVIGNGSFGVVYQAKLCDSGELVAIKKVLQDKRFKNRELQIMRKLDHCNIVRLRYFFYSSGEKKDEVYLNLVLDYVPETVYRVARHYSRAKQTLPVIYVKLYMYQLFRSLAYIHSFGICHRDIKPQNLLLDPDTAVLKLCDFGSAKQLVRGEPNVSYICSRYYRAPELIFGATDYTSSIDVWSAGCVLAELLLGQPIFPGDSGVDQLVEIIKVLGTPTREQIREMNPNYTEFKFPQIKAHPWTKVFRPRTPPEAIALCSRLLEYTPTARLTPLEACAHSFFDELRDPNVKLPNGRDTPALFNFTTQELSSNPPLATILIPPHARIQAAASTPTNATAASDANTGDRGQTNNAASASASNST
smiles,measurement,setting,value
"COc1cc(C2=C(c3c[nH]c4ccc(Br)cc34)C(=O)NC2=O)cc(OC)c1OC [P, 3-(5-Bromo-1H-indol-3-yl)-4-(3,4,5-trimethoxyphenyl)-maleinimide]",Sub-G1 Fraction,HUVEC; 0.79 μM,24.0 ± 1.9%
same,Sub-G1 Fraction,HUVEC; 2.6 μM,31.6 ± 2.0%
same,Sub-G1 Fraction,HUVEC; 7.9 μM,54.4 ± 3.2%
same,viability at 2.6 µM,[1],37.83 ± 0.19%
same,viability at 7.9 µM,[1],20.6 ± 0.35%
same,viability at 26 µM,[1],7.07 ± 1.37%
same,viability at 52 µM,[1],8.68 ± 0.37%
same,melting point,,259 to 262 °C
same,"Activity in combination with irinotecan relative to compound A, in words",HT-29,at least comparable with compound A
same,Sub-G1 Fraction,HT-29; [3],1.81 ± 0.36%
same,Sub-G1 Fraction,HT-29; [4],55.00 ± 0.33%
same,inhibition at 0.026 µM,[2],35%
"CCc1c2c(nc3ccc(OC(=O)N4CCC(N5CCCCC5)CC4)cc13)-c1cc3c(c(=O)n1C2)COC(=O)[C@]3(O)CC [irinotecan, reference compound]",Sub-G1 Fraction,HCT-116; [5],9.86 ± 2.4%
same,Sub-G1 Fraction,SW480; [5],9.61 ± 0.91%
same,Sub-G1 Fraction,Caco-2; [5],18.80 ± 0.8%
same,Sub-G1 Fraction,MKN-45; [5],28.97 ± 1.15%
same,Sub-G1 Fraction,"HT-29; Table 6, HT-29, 1.18 μM irinotecan alone",17.40 ± 0.98%
same,Induction of apoptosis under irinotecan single application (Sub-G1 Fraction),"HT-29; Table 8, HT-29",Induction of apoptosis under irinotecan single application 18.3 ± 1.1%
same,Induction of apoptosis under irinotecan single application (Sub-G1 Fraction),"HT-29; Table 9, HT-29",Induction of apoptosis under irinotecan single application 17.4 ± 0.6%
"COc1cc(C2=C(c3c[nH]c4ccccc34)C(=O)NC2=O)cc(OC)c1OC [A, 3-(1H-indol-3-yl)-4-(3,4,5-trimethoxyphenyl)-maleinimid]",IC50,VEGFR-2,90 nM
same,"VEGFR-2 IC50 values, in words",VEGFR-2; Table 2,low nanomolar range
same,"Combined effect of compound A and low dosed irinotecan on apoptosis, in words",HCT-116,Significant synergistic effects
same,Sub-G1 Fraction,HCT-116; [6],27.90 ± 3.4%
same,Sub-G1 Fraction,HCT-116; [7],3.70 ± 2.8%
same,Sub-G1 Fraction,HUVEC; 0.79 μM,25. ± 0.9%
same,Sub-G1 Fraction,HUVEC; 2.6 μM,87.7 ± 2.3%
same,Sub-G1 Fraction,HUVEC; 7.9 μM,88.9 ± 4.0%
same,viability at 2.6 µM,[1],78.5 ± 3.7%
same,viability at 7.9 µM,[1],62.9 ± 1.5%
same,viability at 26 µM,[1],53.9 ± 4.8%
same,viability at 52 µM,[1],42.8 ± 1.6%
same,"Combined effect of compound A and low dosed irinotecan on apoptosis, in words",SW480,Significant synergistic effects
same,Sub-G1 Fraction,SW480; [6],32.21 ± 0.40%
same,Sub-G1 Fraction,SW480; [7],9.96 ± 2.3%
same,Sub-G1 Fraction,SW480; [8],10 ± 2.3%
same,Sub-G1 Fraction,SW480; [9],38.81 ± 0.88%
same,"Combined effect of compound A and low dosed irinotecan on apoptosis, in words",Caco-2,Significant synergistic effects
same,Sub-G1 Fraction,Caco-2; [6],43.70 ± 2.2%
same,Sub-G1 Fraction,Caco-2; [7],6.00 ± 2.3%
same,Sub-G1 Fraction,Caco-2; [8],5.9 ± 0.6%
same,Sub-G1 Fraction,Caco-2; [9],52.07 ± 2.84%
same,Sub-G1 Fraction,MKN-45; [6],51.44 ± 0.2%
same,Sub-G1 Fraction,MKN-45; [7],20.16 ± 1.6%
same,Sub-G1 Fraction,MKN-45; [8],20.2 ± 1.6%
same,Sub-G1 Fraction,MKN-45; [9],61.1 ± 1.2%
same,IC50,GSK-3β,1100 nM
same,"Combined effect of compound A and low dosed irinotecan on apoptosis, in words",HT-29; HT-29,Significant synergistic effects
same,"Combined effect of compound A and topotecan on apoptosis, in words",HT-29; HT-29,synergistically inhibited apoptosis
same,"Induction of apoptosis in combination with irinotecan compared with vandetanib or sunitinib, in words","HT-29; HT-29, 7 days combination treatment with irinotecan",greater induction of apoptosis
same,Sub-G1 Fraction,"HT-29; Table 6, HT-29, 7.9 μM comp. A plus 1.18 μM irinotecan",57.40 ± 1.6%
same,Sub-G1 Fraction,"HT-29; Table 6, HT-29, 7.9 μM compound A alone",5.90 ± 0.6%
same,Sub-G1 Fraction,"HT-29; Table 7, HT-29, 7.9 μM compound A alone",5.9 ± 0.6%
same,Sub-G1 Fraction,"HT-29; Table 7, HT-29, 7.9 μM compound A plus 20 nM topotecan",65.6 ± 1.8%
same,Sub-G1 Fraction,HT-29; [3],4.70 ± 0.50%
same,Sub-G1 Fraction,HT-29; [4],53.10 ± 3.30%
same,Sub-G1 Fraction,"HT-29; Table 9, HT-29, 7.9 μM compound A plus 1.18 μM Irinotecan, 7 days",49.8 ± 1.30%
same,Sub-G1 Fraction,"HT-29; Table 9, HT-29, single-agent treatment, 7.9 μM compound A, 7 days",8.9 ± 0.8%
same,inhibition at 0.026 µM,[2],82%
same,IC50,FLT-3,166 nM
same,"FLT-3 inhibition, in words",FLT-3; Table 2,most significantly inhibited
"COc1cc(C2=C(c3c[nH]c4ccc(F)cc34)C(=O)NC2=O)cc(OC)c1OC [O, 3-(5-Fluoro-1H-indol-3-yl)-4-(3,4,5-trimethoxyphenyl)-maleinimide]",IC50,VEGFR-2,182 nM
same,Sub-G1 Fraction,HUVEC; 0.79 μM,16.0 ± 1.2%
same,Sub-G1 Fraction,HUVEC; 2.6 μM,73.3 ± 3.2%
same,Sub-G1 Fraction,HUVEC; 7.9 μM,90.6 ± 5.4%
same,viability at 2.6 µM,[1],47.83 ± 0.34%
same,viability at 7.9 µM,[1],35.5 ± 0.71%
same,viability at 26 µM,[1],42.1 ± 0.58%
same,viability at 52 µM,[1],17.6 ± 1.81%
same,melting point,,232 to 233 °C
same,"Activity in combination with irinotecan relative to compound A, in words",HT-29,at least comparable with compound A
same,Sub-G1 Fraction,HT-29; [3],3.26 ± 2.14%
same,Sub-G1 Fraction,HT-29; [4],49.69 ± 2.96%
same,inhibition at 0.026 µM,[2],63%
"CC[C@@]1(O)C(=O)OCc2c1cc1n(c2=O)Cc2cc3c(CN(C)C)c(O)ccc3nc2-1 [topotecan, reference compound]",Sub-G1 Fraction,"SW480; Table 7, 20 nM topotecan alone",13.34 ± 0.3%
same,Sub-G1 Fraction,"Caco-2; Table 7, 20 nM topotecan alone",31.5 ± 0.08%
same,Sub-G1 Fraction,"MKN-45; Table 7, 20 nM topotecan alone",26.15 ± 0.49%
same,Sub-G1 Fraction,"HT-29; Table 7, HT-29, 20 nM topotecan alone",7.9 ± 0.8%
